Assay results published in patent US4416884A, “Piperazinylbenzoheterocyclic compounds” (Otsuka Pharmaceutical Co., Ltd., priority 1978, dated 1983).
In brackets after ≈: the same amount, converted by molar mass. Like-named read-outs stand apart in the source and are kept apart here.

Columns and labels:
Assay type in all cases: cell-based
Escherichia Coli NIHJ = test: antimicrobial activity, serial dilution method on agar plate; conditions: read-out: Minimum Inhibitory Concentration
Method in brief: (§1)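 MIC (mcg/ml) determined by agar plate serial dilution on Heart Infusion agar. Inocula prepared at 1×10^8 cells/ml (O.D. 660 mμ 0.07–0.16) and at 1×10^6 cells/ml by dilution.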

Hafnia alvei IFO 3731 = test: as above; conditions: read-out: Minimum Inhibitory Concentration
Method in brief: as §1

[1] = tested on: Proteus morganii IID Kono; test: as above; conditions: Morganella morganii
Method in brief: as §1

[2] = tested on: Pseudomonas aeruginosa ATCC 10145; test: as above
Method in brief: as §1

[3] = tested on: Pseudomonas maltophilia IFO 12692; test: as above; conditions: Stenotrophomonas maltophilia
Method in brief: as §1

[4] = tested on: Streptococcus pneumoniae Type II; test: as above
Method in brief: as §1

[5] = tested on: Streptococcus pyogenes IID S-23; test: as above
Method in brief: as §1

[6] = tested on: Yersinia enterocolitica 0-3; test: as above
Method in brief: as §1

[7] = tested on: Aeromonas hydrophila IFO 12658; test: antimicrobial activity on bacteria which cause infectious diseases in fish
Protocol: (§2) The antimicrobial activity of the following test compounds on various test organisms listed below was determined by the serial dilution method on agar plate (Heart Infusion agar produced by Difco Co.) (see CHEMOTHERAPY 22, pp. 1126-1128 (1974)), and the minimum inhibitory concentrations (mcg/ml) obtained are shown in Table 1 below.
(§3) A sample of each test organism was prepared so that the population of the organism was 1×10^8 cells/ml (O.D. 660 mμ=0.07 to 0.16) and 1×10^6 cells/ml (which was obtained by diluting the above 1×10^8 cells/ml preparation).
(§4) In the same manner as above, the antimicrobial activity of the following compounds on various test organisms which cause infectious diseases in fish was determined.

[8] = tested on: Aeromonas hydrophila IFO 12981; test: as above
Protocol: as §2, §3, §4

[9] = tested on: Aeromonas salmonicida IFO 12659; test: as above
Protocol: as §2, §3, §4

[10] = tested on: Aeromonas salmonicida IFO 12718; test: as above
Protocol: as §2, §3, §4

[11] = tested on: Pseudomonas fluorescens IFO 12180; test: as above
Protocol: as §2, §3, §4

[12] = tested on: Pseudomonas fluorescens IFO 12568; test: as above
Protocol: as §2, §3, §4

[13] = tested on: Vibrio anguillarum IFO 12710; test: as above
Protocol: as §2, §3, §4

[14] = tested on: Vibrio anguillarum IFO 13266; test: as above
Protocol: as §2, §3, §4

[15] = tested on: Test Organism 2 (Escherichia Coli NIHJ JC-2 (IFO 12734)); test: influence of the addition of horse serum on the MIC
[16] = tested on: Test Organism 17 (Pseudomonas putida IFO 13696); test: as above
[17] = tested on: Test Organism 16 (Pseudomonas maltophilia IFO 12692); test: as above; conditions: Stenotrophomonas maltophilia, read-out: Minimum Inhibitory Concentration
[18] = tested on: Test Organism 21 (Bacillus subtilis PCI 219); test: as above
[19] = tested on: Test Organism 27 (Streptococcus pneumoniae Type III); test: as above
[20] = IFO3731, inoculum 1 × 10^6 cells/ml
[21] = IFO3731, inoculum 1 × 10^8 cells/ml
[22] = read-out: Minimum Inhibitory Concentration, inoculum 1 × 10^6 cells/ml
[23] = read-out: Minimum Inhibitory Concentration, inoculum 1 × 10^8 cells/ml
[24] = inoculum 1 × 10^8 cells/ml, read-out: Minimum Inhibitory Concentration
[25] = horse serum 0%, inoculum 10^6, read-out: Minimum Inhibitory Concentration
[26] = horse serum 0%, inoculum 10^8, read-out: Minimum Inhibitory Concentration
[27] = horse serum 10%, inoculum 10^6, read-out: Minimum Inhibitory Concentration
[28] = horse serum 10%, inoculum 10^8, read-out: Minimum Inhibitory Concentration
[29] = horse serum 20%, inoculum 10^6, read-out: Minimum Inhibitory Concentration
[30] = horse serum 20%, inoculum 10^8, read-out: Minimum Inhibitory Concentration
[31] = horse serum 40%, inoculum 10^6, read-out: Minimum Inhibitory Concentration
[32] = horse serum 40%, inoculum 10^8, read-out: Minimum Inhibitory Concentration

CCn1cc(C(=O)O)c(=O)c2ccc(C)nc21 [E] was tested, and the MIC (Escherichia Coli NIHJ; inoculum 1 × 10^6 cells/ml) was 1.6 µg/mL (≈ 6.89 µM), the MIC (Escherichia Coli NIHJ; inoculum 1 × 10^8 cells/ml) was 3.1 µg/mL (≈ 13.3 µM) and the MIC (Hafnia alvei IFO 3731; [20]) was 50 µg/mL (≈ 215 µM). It also gave an MIC (Hafnia alvei IFO 3731; [21]) of 100 µg/mL (≈ 431 µM), an MIC [1, 22] of 3.1 µg/mL (≈ 13.3 µM) and an MIC [1, 23] of 6.3 µg/mL (≈ 27.1 µM). The MIC ([2]; ATCC10145, read-out: Minimum Inhibitory Concentration, inoculum 1 × 10^6 cells/ml) was over 100 µg/mL, the MIC ([2]; ATCC10145, read-out: Minimum Inhibitory Concentration, inoculum 1 × 10^8 cells/ml) was over 100 µg/mL and the MIC ([3]; IFO12692, read-out: Minimum Inhibitory Concentration) was over 100 µg/mL. It also gave an MIC [4, 22] of over 100 µg/mL, an MIC [4, 23] of over 100 µg/mL and an MIC ([5]; IIDS23, read-out: Minimum Inhibitory Concentration, inoculum 1 × 10^6 cells/ml) of over 100 µg/mL. It also gave an MIC ([5]; IIDS23, read-out: Minimum Inhibitory Concentration, inoculum 1 × 10^8 cells/ml) of over 100 µg/mL, an MIC ([6]; Yersinia enterocolitica, 03, read-out: Minimum Inhibitory Concentration, inoculum 1 × 10^6 cells/ml) of 1.6 µg/mL (≈ 6.89 µM) and an MIC ([6]; Yersinia enterocolitica, 03, read-out: Minimum Inhibitory Concentration, inoculum 1 × 10^8 cells/ml) of 12.5 µg/mL (≈ 53.8 µM). It also gave an MIC ([7]; IFO12658, inoculum 10^6, read-out: Minimum Inhibitory Concentration) of 0.8 µg/mL (≈ 3.44 µM), an MIC ([7]; IFO12658, inoculum 10^8, read-out: Minimum Inhibitory Concentration) of 0.8 µg/mL (≈ 3.44 µM) and an MIC ([8]; IFO12981, inoculum 10^6, read-out: Minimum Inhibitory Concentration) of 0.2 µg/mL (≈ 0.861 µM). The MIC ([8]; IFO12981, inoculum 10^8, read-out: Minimum Inhibitory Concentration) was 0.4 µg/mL (≈ 1.72 µM), the MIC ([9]; IFO12659, inoculum 10^6, read-out: Minimum Inhibitory Concentration) was 0.8 µg/mL (≈ 3.44 µM) and the MIC ([9]; IFO12659, inoculum 10^8, read-out: Minimum Inhibitory Concentration) was 0.8 µg/mL (≈ 3.44 µM). It also gave an MIC ([10]; IFO12718, inoculum 10^6, read-out: Minimum Inhibitory Concentration) of 0.8 µg/mL (≈ 3.44 µM), an MIC ([10]; IFO12718, inoculum 10^8, read-out: Minimum Inhibitory Concentration) of 0.8 µg/mL (≈ 3.44 µM) and an MIC ([11]; IFO12180, inoculum 10^6, read-out: Minimum Inhibitory Concentration) of 50 µg/mL (≈ 215 µM). The MIC ([11]; IFO12180, inoculum 10^8, read-out: Minimum Inhibitory Concentration) was over 50 µg/mL, the MIC ([12]; IFO12568, inoculum 10^6, read-out: Minimum Inhibitory Concentration) was 50 µg/mL (≈ 215 µM) and the MIC ([12]; IFO12568, inoculum 10^8, read-out: Minimum Inhibitory Concentration) was over 50 µg/mL. The MIC ([13]; IFO12710, inoculum 10^6, read-out: Minimum Inhibitory Concentration) was 0.8 µg/mL (≈ 3.44 µM), the MIC ([13]; IFO12710, inoculum 10^8, read-out: Minimum Inhibitory Concentration) was 1.6 µg/mL (≈ 6.89 µM) and the MIC ([14]; IFO13266, inoculum 10^6, read-out: Minimum Inhibitory Concentration) was 0.8 µg/mL (≈ 3.44 µM). For the same compound, the MIC ([14]; IFO13266, inoculum 10^8, read-out: Minimum Inhibitory Concentration) was 1.6 µg/mL (≈ 6.89 µM).
CC1CCc2cc(F)cc3c(=O)c(C(=O)O)cn1c23 (stereo not shown) [F] was tested, and the MIC (Escherichia Coli NIHJ; inoculum 1 × 10^6 cells/ml) was 0.1 µg/mL (≈ 0.383 µM), the MIC (Escherichia Coli NIHJ; inoculum 1 × 10^8 cells/ml) was 0.2 µg/mL (≈ 0.766 µM) and the MIC (Hafnia alvei IFO 3731; [20]) was 125 µg/mL (≈ 478 µM). The MIC (Hafnia alvei IFO 3731; [21]) was 25 µg/mL (≈ 95.7 µM), the MIC ([1]; inoculum 1 × 10^6 cells/ml, read-out: Minimum Inhibitory Concentration) was 0.4 µg/mL (≈ 1.53 µM) and the MIC [1, 24] was 0.8 µg/mL (≈ 3.06 µM). It also gave an MIC ([2]; ATCC10145, inoculum 1 × 10^6 cells/ml, read-out: Minimum Inhibitory Concentration) of 12.5 µg/mL (≈ 47.8 µM), an MIC ([2]; ATCC10145, inoculum 1 × 10^8 cells/ml, read-out: Minimum Inhibitory Concentration) of 25 µg/mL (≈ 95.7 µM) and an MIC ([3]; IFO12692, inoculum 1 × 10^8 cells/ml, read-out: Minimum Inhibitory Concentration) of 25 µg/mL (≈ 95.7 µM). The MIC [4, 24] was over 100 µg/mL, the MIC ([5]; IIDS23, inoculum 1 × 10^6 cells/ml, read-out: Minimum Inhibitory Concentration) was over 100 µg/mL and the MIC ([5]; IIDS23, inoculum 1 × 10^8 cells/ml, read-out: Minimum Inhibitory Concentration) was over 100 µg/mL. It also gave an MIC ([6]; Yersinia enterocolitica, 03, inoculum 1 × 10^6 cells/ml, read-out: Minimum Inhibitory Concentration) of 0.4 µg/mL (≈ 1.53 µM), an MIC ([6]; Yersinia enterocolitica, 03, inoculum 1 × 10^8 cells/ml, read-out: Minimum Inhibitory Concentration) of 0.8 µg/mL (≈ 3.06 µM) and an MIC [15, 25] of 0.8 µg/mL (≈ 3.06 µM). For the same compound, the MIC [15, 26] was 0.8 µg/mL (≈ 3.06 µM), the MIC [15, 27] was 0.8 µg/mL (≈ 3.06 µM) and the MIC [15, 28] was 0.8 µg/mL (≈ 3.06 µM). For the same compound, the MIC [15, 29] was 0.8 µg/mL (≈ 3.06 µM), the MIC [15, 30] was 0.8 µg/mL (≈ 3.06 µM) and the MIC [15, 31] was 1.6 µg/mL (≈ 6.12 µM). For the same compound, the MIC [15, 32] was 1.6 µg/mL (≈ 6.12 µM), the MIC ([16]; IFO13696, horse serum 0%, inoculum 10^6, read-out: Minimum Inhibitory Concentration) was 0.1 µg/mL (≈ 0.383 µM) and the MIC ([16]; IFO13696, horse serum 0%, inoculum 10^8, read-out: Minimum Inhibitory Concentration) was 0.2 µg/mL (≈ 0.766 µM). It also gave an MIC ([16]; IFO13696, horse serum 10%, inoculum 10^6, read-out: Minimum Inhibitory Concentration) of 0.2 µg/mL (≈ 0.766 µM), an MIC ([16]; IFO13696, horse serum 10%, inoculum 10^8, read-out: Minimum Inhibitory Concentration) of 0.4 µg/mL (≈ 1.53 µM) and an MIC ([16]; IFO13696, horse serum 20%, inoculum 10^6, read-out: Minimum Inhibitory Concentration) of 0.2 µg/mL (≈ 0.766 µM). It also gave an MIC ([16]; IFO13696, horse serum 20%, inoculum 10^8, read-out: Minimum Inhibitory Concentration) of 0.2 µg/mL (≈ 0.766 µM), an MIC ([16]; IFO13696, horse serum 40%, inoculum 10^6, read-out: Minimum Inhibitory Concentration) of 0.2 µg/mL (≈ 0.766 µM) and an MIC ([16]; IFO13696, horse serum 40%, inoculum 10^8, read-out: Minimum Inhibitory Concentration) of 0.2 µg/mL (≈ 0.766 µM). The MIC ([17]; IFO12692, horse serum 0%, inoculum 10^6) was 0.8 µg/mL (≈ 3.06 µM), the MIC ([17]; IFO12692, horse serum 0%, inoculum 10^8) was 0.8 µg/mL (≈ 3.06 µM) and the MIC ([17]; IFO12692, horse serum 10%, inoculum 10^6) was 0.4 µg/mL (≈ 1.53 µM). The MIC ([17]; IFO12692, horse serum 10%, inoculum 10^8) was 0.8 µg/mL (≈ 3.06 µM), the MIC ([17]; IFO12692, horse serum 20%, inoculum 10^6) was 1.6 µg/mL (≈ 6.12 µM) and the MIC ([17]; IFO12692, horse serum 20%, inoculum 10^8) was 0.8 µg/mL (≈ 3.06 µM). For the same compound, the MIC ([17]; IFO12692, horse serum 40%, inoculum 10^6) was 1.6 µg/mL (≈ 6.12 µM), the MIC ([17]; IFO12692, horse serum 40%, inoculum 10^8) was 1.6 µg/mL (≈ 6.12 µM) and the MIC [18, 25] was 0.8 µg/mL (≈ 3.06 µM). It also gave an MIC [18, 26] of 0.8 µg/mL (≈ 3.06 µM), an MIC [18, 27] of 0.8 µg/mL (≈ 3.06 µM) and an MIC [18, 28] of 0.8 µg/mL (≈ 3.06 µM). The MIC [18, 29] was 0.8 µg/mL (≈ 3.06 µM), the MIC [18, 30] was 0.8 µg/mL (≈ 3.06 µM) and the MIC [18, 31] was 1.6 µg/mL (≈ 6.12 µM). It also gave an MIC [18, 32] of 1.6 µg/mL (≈ 6.12 µM), an MIC [19, 25] of 50 µg/mL (≈ 191 µM) and an MIC [19, 26] of 50 µg/mL (≈ 191 µM). It also gave an MIC [19, 27] of 50 µg/mL (≈ 191 µM), an MIC [19, 28] of over 50 µg/mL and an MIC [19, 29] of 50 µg/mL (≈ 191 µM). For the same compound, the MIC [19, 30] was over 50 µg/mL, the MIC [19, 31] was 50 µg/mL (≈ 191 µM) and the MIC [19, 32] was over 50 µg/mL.
